The record followed here is ChEMBL document CHEMBL3526059, “Reversible inhibition of human carboxylesterases by acyl glucuronides” (Drug Metab Dispos, 2013).

What is called half-life is the time needed for the level to fall by half in the phase considered. Usually pKi stands for −log10 of the Ki, conventionally taken in molar units. The term pIC50 denotes −log10 of the IC50, conventionally taken in molar units.

pIC50, pKi: −log10 of the molar value.

Data set [1] in a line: Half life in phosphate buffer at pH 7.4 by HPLC analysis. It is filed as physicochemical.
Data set [2] is described as follows: Half life in phosphate buffer at 10 uM at pH 7.4 by LC/TOF-MS analysis. Format: physicochemical.
Data set [3] concerns the target T1, Liver carboxylesterase 1 (Homo sapiens, UniProt P23141).
T1 sequence (P23141 whole entry): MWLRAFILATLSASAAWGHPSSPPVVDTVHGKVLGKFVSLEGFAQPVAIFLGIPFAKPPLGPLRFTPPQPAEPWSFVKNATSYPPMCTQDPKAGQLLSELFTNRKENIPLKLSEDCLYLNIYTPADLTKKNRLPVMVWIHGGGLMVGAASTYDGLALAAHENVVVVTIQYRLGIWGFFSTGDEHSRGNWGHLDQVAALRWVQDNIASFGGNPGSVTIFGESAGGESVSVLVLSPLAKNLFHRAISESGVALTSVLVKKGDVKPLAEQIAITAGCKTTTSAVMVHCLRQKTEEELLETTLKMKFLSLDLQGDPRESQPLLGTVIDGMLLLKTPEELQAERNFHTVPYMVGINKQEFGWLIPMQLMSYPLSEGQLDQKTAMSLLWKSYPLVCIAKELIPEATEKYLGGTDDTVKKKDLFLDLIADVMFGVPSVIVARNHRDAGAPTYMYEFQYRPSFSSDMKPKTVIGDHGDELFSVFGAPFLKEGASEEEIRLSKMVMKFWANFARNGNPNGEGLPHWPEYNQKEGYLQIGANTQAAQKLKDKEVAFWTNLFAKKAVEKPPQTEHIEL
Kind of data set: Reversible inhibition of human CES1 assessed as hydrolysis of 4NPA to 4NP.

Data set [4] has as its target T2, Cocaine esterase (Homo sapiens, UniProt O00748).
T2 sequence (O00748 whole entry): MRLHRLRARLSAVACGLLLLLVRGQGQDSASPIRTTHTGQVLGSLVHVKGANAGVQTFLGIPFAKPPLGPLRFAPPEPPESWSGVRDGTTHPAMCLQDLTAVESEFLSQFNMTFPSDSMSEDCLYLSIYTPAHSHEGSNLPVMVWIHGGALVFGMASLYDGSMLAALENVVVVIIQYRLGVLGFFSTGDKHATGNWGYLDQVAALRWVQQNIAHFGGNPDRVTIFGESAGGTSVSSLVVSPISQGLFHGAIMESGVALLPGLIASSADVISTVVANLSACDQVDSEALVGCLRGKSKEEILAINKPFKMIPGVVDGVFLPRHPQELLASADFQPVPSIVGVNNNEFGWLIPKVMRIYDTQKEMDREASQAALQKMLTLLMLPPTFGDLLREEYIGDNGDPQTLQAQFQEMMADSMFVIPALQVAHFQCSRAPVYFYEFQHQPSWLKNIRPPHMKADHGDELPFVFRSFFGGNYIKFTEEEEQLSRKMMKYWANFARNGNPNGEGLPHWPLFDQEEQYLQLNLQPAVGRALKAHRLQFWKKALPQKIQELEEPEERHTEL
Kind of data set: Inhibition of human CES2 assessed as hydrolysis of 4NPA to 4NP at 1 mM by spectrophotometric analysis. The following applies: 1000 µM.

Data set [5] can be described thus: Half life of the compound. Format: physicochemical.
The target of data set [6] is T1, Liver carboxylesterase 1. Kind of data set: Inhibition of human CES1 assessed as hydrolysis of 4NPA to 4NP at 1 mM by spectrophotometric analysis. As to conditions: 1000 µM.
Data set [7] concerns the target T1, Liver carboxylesterase 1. Kind of data set: Activity of human CES1 assessed as loss of 1-O-acyl glucuronide at 100 uM measured at 30 mins by LC/TOF-MS analysis relative to control. Format: ADME. The following applies: 0.5 h.
Data set [8] concerns the target T1, Liver carboxylesterase 1. Kind of data set: Activity of human CES1 assessed as loss of 1-O-acyl glucuronide at 100 uM measured at 60 mins by LC/TOF-MS analysis relative to control. The following applies: 1 h. Format: ADME.
Data set [9] addresses T1, Liver carboxylesterase 1. Kind of data set: Time-dependent inhibition of human CES1 assessed as hydrolysis of 4NPA to 4NP preincubated for 60 mins followed by 4NPA addition.
Data set [10] addresses T1, Liver carboxylesterase 1. Kind of data set: Time-dependent inhibition of human CES1 assessed as hydrolysis of 4NPA to 4NP preincubated for 30 mins followed by 4NPA addition.
Data set [11] has as its target T1, Liver carboxylesterase 1. Kind of data set: Time-dependent inhibition of human CES1 assessed as hydrolysis of 4NPA to 4NP preincubated for 10 mins followed by 4NPA addition.
For data set [12], the target named is T1, Liver carboxylesterase 1. Kind of data set: Activity of human CES1 assessed as loss of 1-O-acyl glucuronide at 100 uM measured at 10 mins by LC/TOF-MS analysis relative to control. Format: ADME.
The nature of data set [13]: Half life in buffer at pH 7.4 by 1H NMR spectroscopic analysis in presence of human urine. It is filed as physicochemical. As to conditions: buffer with human urine.
The target in data set [14] is T2, Cocaine esterase. Kind of data set: Inhibition of human CES2.

In turn, `CC(C)Cc1ccc([C@@H](C)C(=O)O[C@@H]2O[C@H](C(=O)O)[C@@H](O)[C@H](O)[C@H]2O)cc1` gave a half-life in data set [1] of 1.8 h.

In data set [1], `CC(C)Cc1ccc([C@H](C)C(=O)O[C@@H]2O[C@H](C(=O)O)[C@@H](O)[C@H](O)[C@H]2O)cc1` had a half-life of 3.3 h.

As for `O=C(O)[C@H]1O[C@@H](OC(=O)[C@H](c2ccccc2Cl)N2CCc3sccc3C2)[C@H](O)[C@@H](O)[C@@H]1O`, in [2], the half-life at 10 µM is 5.02 h. For the same compound, the pKi on Liver carboxylesterase 1 [3] was 4.61. In addition, the “inhibition (INH)” value at Cocaine esterase [4] is recorded as “Not Active”.

In turn, `CCCC(CCC)C(=O)O[C@@H]1O[C@H](C(=O)O)[C@@H](O)[C@H](O)[C@H]1O` had a half-life at 10 µM in data set [2] of 15.2 h. In data set [5], this compound showed a half-life of 60 h. The “inhibition (INH)” value on Cocaine esterase [4] and on Liver carboxylesterase 1 [6] was “Not Active” in each case.

Regarding `COc1ccc2cc([C@@H](C)C(=O)O[C@@H]3O[C@H](C(=O)O)[C@@H](O)[C@H](O)[C@H]3O)ccc2c1`, the half-life at 10 µM in [2] was 0.996 h. Further, the pKi on Liver carboxylesterase 1 [3] is 3.33. Further, the “inhibition (INH)” value at Cocaine esterase [4] is given as “Not Active”.

In data set [2], `COc1ccc2cc([C@H](C)C(=O)O[C@@H]3O[C@H](C(=O)O)[C@@H](O)[C@H](O)[C@H]3O)ccc2c1` gave a half-life at 10 µM of 1.77 h. The pKi at Liver carboxylesterase 1 [3] is 3.15. Also, the “inhibition (INH)” value at Cocaine esterase [4] is on record as “Not Active”.

Consider `O=C(Cc1ccccc1Nc1c(Cl)cccc1Cl)O[C@@H]1O[C@H](C(=O)O)[C@@H](O)[C@H](O)[C@H]1O`, for which the values for the Activity on Liver carboxylesterase 1 [7], on Liver carboxylesterase 1 [8] and at Liver carboxylesterase 1 [12] were 50%, 75% and 20%, respectively. For the same compound, in data set [2], the half-life at 10 µM is 0.537 h. For the same compound, the pKi at Liver carboxylesterase 1 [3] was 5.36. For the same compound, the “inhibition (INH)” value at Cocaine esterase [4] is reported as “Not Active”. Besides, the pIC50 on Liver carboxylesterase 1 [9] is 5.64; at Liver carboxylesterase 1 [10] it was 5.71; on Liver carboxylesterase 1 [11], 5.60.

In [2], `O=C(O[C@@H]1O[C@H](C(=O)O)[C@@H](O)[C@H](O)[C@H]1O)c1cn(Cc2c(F)cccc2F)nn1` had a half-life at 10 µM of 0.252 h. In addition, the “inhibition (INH)” value at Cocaine esterase [4] and at Liver carboxylesterase 1 [6] was “Not Active” throughout.

In the case of `CC(C)Cc1ccc(C(C)C(=O)O[C@@H]2O[C@H](C(=O)O)[C@@H](O)[C@H](O)[C@H]2O)cc1` (mixture of isomers), in data set [2], the half-life at 10 µM was 3.67 h. Besides, the pKi on Liver carboxylesterase 1 [3] is 3.45. Besides, on Cocaine esterase [4], the “inhibition (INH)” value is recorded as “Not Active”. Further, the half-life in data set [13] was 3.5 h.

In turn, `CCCC(CCC)C(=O)O` [VALPROIC ACID] showed a pKi at Cocaine esterase [14] of 2.10.
